According to US20250163052A1, “cGAS INHIBITORS AND USES THEREOF” (Cornell University, priority 2022, published 2025):

Assays:
[1] = Metabolic stability in mouse liver microsomes; conditions: for Remaining (NCF = 60 min) / Remaining (T = 60 min): mouse liver microsomes; for Remaining (NCF = 60 min): no co-factor (no NADPH); for Remaining (T = 60 min): 60 min with NADPH
NFkB-SEAP = experiment: THP1-Dual cells transfected with DNA, nfkb expression (Quantiblue); assay type: cell-based; conditions: Homo sapiens; for inhibition at 10 µM: THP-1, 10 μM; for inhibition at 30 µM: THP-1, 30 μM
Method: Evaluation of active cGAS inhibitors in THP1 cells (Table 3). Cellular activity of all compounds (in Table 3) was determined using THP1-Dual™ cells as described (Lama et. al., 2019). THP1-Dual™ cells (Invivogen) (50000 cells in 100 μl media) were seeded into each well of a 96-well plate and treated with compounds at various dilution for 4 hours. Subsequently, cells were transfected with DNA (2 ug/ml) and lipofectamine and incubate the cells were incubated overnight. Ifnb expression was measured in cell supernatant using Quantiluc, nfkb expression was determined using Quantiblue, and cell viability using Promega® CellTiter-Glo®.

THP1 cells = experiment: THP1-Dual cells, cell viability (CellTiter-Glo); assay type: cell-based
Summary of the method: (§1)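 Readouts after overnight incubation: Quantiluc luminescence for Ifnb, Quantiblue for nfkb (both in supernatant) and CellTiter-Glo for viability. Before the DNA stimulus (2 ug/ml, lipofectamine transfection), THP1-Dual cells received compound at several dilutions for 4 h.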

IFNB = experiment: THP1-Dual cells transfected with DNA, Ifnb expression (Quantiluc); assay type: cell-based; conditions: Homo sapiens; for inhibition at 10 µM: THP-1, 10 μM; for inhibition at 30 µM: THP-1, 30 μM
Summary of the method: as §1

m-cGAS = m-cGAS (Mus musculus, UniProt Q8C6L5); experiment: Cell-free mouse cGAS enzyme inhibition assay (ATP depletion, Kinase-Glo Max); assay type: biochemical; conditions: 1 h; for inhibition at 1 µM: read-out: m-cGAS, conc. 1 μM; for inhibition at 10 µM: read-out: m-cGAS, conc. 10 μM
h-cGAS = h-cGAS (Homo sapiens, UniProt Q8N884); experiment: Cell-free human cGAS enzyme inhibition assay (ATP depletion, Kinase-Glo Max); assay type: biochemical; conditions: 3 h; for inhibition at 1 µM: read-out: h-cGAS, conc. 1 μM; for inhibition at 10 µM: read-out: h-cGAS, conc. 10 μM
[2] = Metabolic stability in human liver microsomes; conditions: for Remaining (NCF = 60 min) / Remaining (T = 60 min): human liver microsomes; for Remaining (NCF = 60 min): no co-factor (no NADPH); for Remaining (T = 60 min): 60 min with NADPH

Chain of h-cGAS (Q8N884 whole entry): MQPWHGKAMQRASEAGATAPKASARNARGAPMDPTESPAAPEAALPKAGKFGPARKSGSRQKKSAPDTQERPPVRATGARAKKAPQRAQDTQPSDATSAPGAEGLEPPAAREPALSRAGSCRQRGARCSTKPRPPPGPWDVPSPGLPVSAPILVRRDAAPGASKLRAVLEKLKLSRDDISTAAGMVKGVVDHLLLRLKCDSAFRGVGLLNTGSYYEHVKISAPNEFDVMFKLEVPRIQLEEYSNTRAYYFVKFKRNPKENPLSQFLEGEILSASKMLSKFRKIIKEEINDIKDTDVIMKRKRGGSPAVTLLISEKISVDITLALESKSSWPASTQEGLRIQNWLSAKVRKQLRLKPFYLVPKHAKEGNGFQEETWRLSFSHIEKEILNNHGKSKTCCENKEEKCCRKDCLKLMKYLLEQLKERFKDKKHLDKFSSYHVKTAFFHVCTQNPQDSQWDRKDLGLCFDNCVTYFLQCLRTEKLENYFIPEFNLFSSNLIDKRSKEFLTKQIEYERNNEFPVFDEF
Chain of m-cGAS (Q8C6L5 whole entry): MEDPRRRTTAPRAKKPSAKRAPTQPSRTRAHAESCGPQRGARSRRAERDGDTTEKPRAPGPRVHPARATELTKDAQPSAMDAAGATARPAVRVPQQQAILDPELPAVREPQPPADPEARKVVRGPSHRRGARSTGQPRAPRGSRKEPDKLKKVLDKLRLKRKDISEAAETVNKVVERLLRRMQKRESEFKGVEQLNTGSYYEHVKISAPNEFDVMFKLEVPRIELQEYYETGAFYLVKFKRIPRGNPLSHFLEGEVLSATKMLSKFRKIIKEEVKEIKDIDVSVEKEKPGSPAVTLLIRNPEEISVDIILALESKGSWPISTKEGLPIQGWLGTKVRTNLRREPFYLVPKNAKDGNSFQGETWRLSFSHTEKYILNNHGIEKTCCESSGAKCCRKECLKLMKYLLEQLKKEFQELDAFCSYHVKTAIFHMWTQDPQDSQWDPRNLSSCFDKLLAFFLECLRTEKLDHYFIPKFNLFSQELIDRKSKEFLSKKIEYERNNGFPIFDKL

Row | SMILES | Remaining (NCF = 60 min) [1] [%] | Remaining (T = 60 min) [1] [%] | inhibition at 10 µM (NFkB-SEAP) [%] | Cell viability 10 μM (THP1 cells) | Cell viability 30 μM (THP1 cells) | inhibition at 10 µM (IFNB) [%] | inhibition at 30 µM (IFNB) [%] | inhibition at 1 µM (m-cGAS) [%] | inhibition at 10 µM (m-cGAS) [%] | inhibition at 1 µM (h-cGAS) [%] | inhibition at 10 µM (h-cGAS) [%] | inhibition at 30 µM (NFkB-SEAP) [%] | also measured
1 | Cn1ccc(-c2cc(Cl)c(Cl)c3oc4c(c23)CN(C(=O)CO)CC4)n1 [Compound 24] | 116.2 | 6.3 | < 24 | +++ (+, ++, and +++ mean the compound respectively shows 25-49%; 50-74%; or 75-100% viability to cells) | +++ (+, ++, and +++ mean the compound respectively shows 25-49%; 50-74%; or 75-100% viability to cells) | 50 to 74 | 75 to 100 | 0 to 24 | 50 to 74 | 50 to 74 | 75 to 100 | – | CLint scaled ([1]; mouse, liver microsomes): < 23.1 mL/min/kg; half-life ([1]; mouse, liver microsomes): > 185 min; microsomal CLint ([1]; mouse, liver microsomes): < 7.5 µL/min/mg
2 | C[C@]12CC[C@H]3[C@@H](CCC4=CC(=O)CC[C@@]43C)[C@@H]1CC[C@@H]2O [Testosterone, reference compound] | 88.7 | 0.0 | – | – | – | – | – | – | – | – | – | – | CLint scaled ([1]; mouse, liver microsomes): 1490 mL/min/kg; CLint(mic) ([1]; mouse, liver microsomes): 375.9 µL/min/mg; T½ ([1]; mouse, liver microsomes): 3.7 min; Remaining (NCF = 60 min) [2]: 109.9%; Remaining (T = 60 min) [2]: 4.0%; CLint scaled ([2]; human, liver microsomes): 98.2 mL/min/kg
3 | O=C(O)Cc1ccccc1Nc1c(Cl)cccc1Cl [Diclofenac, reference compound] | 100.4 | 33.1 | – | – | – | – | – | – | – | – | – | – | half-life ([1]; mouse, liver microsomes): 38 min; microsomal CLint ([1]; mouse, liver microsomes): 36.5 µL/min/mg; Remaining (NCF = 60 min) [2]: 114.8%; Remaining (T = 60 min) [2]: 0.0%; CLint(mic) ([2]; human, liver microsomes): 323.6 µL/min/mg; T½ ([2]; human, liver microsomes): 4.3 min
4 | Cn1c2c(c3c(O)cc(Cl)c(F)c31)CN(C(=O)CO)CC2 [Compound 1, 1-(7-chloro-6-fluoro-9-hydroxy-5-methyl-3,4-dihydro-1H-pyrido[4,3-b]indol-2-yl)-2-hydroxy-ethanone] | – | – | < 24 | +++ (+, ++, and +++ mean the compound respectively shows 25-49%; 50-74%; or 75-100% viability to cells) | +++ (+, ++, and +++ mean the compound respectively shows 25-49%; 50-74%; or 75-100% viability to cells) | < 24 | < 24 | – | 75 to 100 | 0 to 24 | 75 to 100 | < 24 | –
5 | NCC(=O)N1CCc2sc3c(Cl)c(Cl)cc(-c4cncnc4)c3c2C1 [Compound 53] | – | – | 25 to 49 | +++ (+, ++, and +++ mean the compound respectively shows 25-49%; 50-74%; or 75-100% viability to cells) | − (Cell viability <24%, in THP1 cells is expressed as “−”) | < 24 | 75 to 100 | 0 to 24 | 75 to 100 | 0 to 24 | 50 to 74 | 50 to 74 | –
6 | NCC(=O)N1CCc2c(sc3c(Cl)c(Cl)cc(-c4cccs4)c23)C1 [Compound 81] | – | – | 75 to 100 | +++ (+, ++, and +++ mean the compound respectively shows 25-49%; 50-74%; or 75-100% viability to cells) | − (Cell viability <24%, in THP1 cells is expressed as “−”) | 50 to 74 | 75 to 100 | 0 to 24 | 50 to 74 | 0 to 24 | 50 to 74 | 75 to 100 | –
7 | CN1c2c(Cl)c(Cl)cc(-c3cnn(C)c3)c2C2CN(C(=O)CN)CCC21 (centres unmarked) [Compound 12] | – | – | < 24 | +++ (+, ++, and +++ mean the compound respectively shows 25-49%; 50-74%; or 75-100% viability to cells) | – | < 24 | – | – | 0 to 24 | 0 to 24 | 75 to 100 | – | –
8 | CNc1ccc(-c2cc(Cl)c(Cl)c3sc4c(c23)CCN(C(=O)CN)C4)cn1 [Compound 76] | – | – | < 24 | +++ (+, ++, and +++ mean the compound respectively shows 25-49%; 50-74%; or 75-100% viability to cells) | +++ (+, ++, and +++ mean the compound respectively shows 25-49%; 50-74%; or 75-100% viability to cells) | 75 to 100 | 75 to 100 | – | 75 to 100 | 0 to 24 | 50 to 74 | 75 to 100 | –
